The text below walks through data of paper PMC10375784, “Synthesis of phthalazine-based derivatives as selective anti-breast cancer agents through EGFR-mediated apoptosis: in vitro and in silico studies” (BMC Chemistry, 2023).

One data set concerns VEGFR‐2. Particulars: cited from earlier work.
In data set [1] the test system is breast MCF-7 and MDA-MB-231 cancer cell lines. The experiment in a line: SAR ranking of cytotoxicity (from Table 1). Particulars: Fig. 4, SAR summary. Format: cell-based.
For data set [2], the system named is MDA-MB-231 cells. The experiment in a line: MTT cytotoxicity assay, MDA-MB-231. Format: cell-based.
The test system of a further data set is MCF-7 cells. The experiment in a line: MTT cytotoxicity assay, MCF-7. Format: cell-based. Particulars: Homo sapiens, MCF7, 48 h, three independent trials, read-out: IC50 (μM) ± SD MCF-7. Here is the method: (§1) MCF-7, HepG2 cancer cells and WISH normal cells were obtained from the National Cancer Institute in Cairo, Egypt, they were cultured in complete media of RPMI and DMEM, respectively at 5% carbon dioxide and 37 °C following standard tissue culture work. The cells were grown in “10% fetal bovine serum (FBS) and 1% penicillin–streptomycin” in 96-multiwell plate. All the synthesized compounds were screened for their cytotoxicity using 20 µL of MTT solution (Promega, USA) for 48 hours using untreated and treated cells with concentrations of (0.01, 0.1, 1, 10, and 100 µM) for 48 h. The plate was cultured for 3 h. Percentage of cell viability was calculated following this equation: 100-(ASample/AControl)X100 . An ELISA microplate reader was used to measure the absorbance at 690 nm to calculate the viability versus concentration, and the IC50 value using GraphPad prism software.

For data set [3], the system named is breast MCF-7 and MDA-MB-231 cancer cell lines. As to the kind of experiment: SAR ranking of cytotoxicity (from Table 1). Particulars: based on Table 1; cell line not stated, order follows MCF-7 values. Here is the method:
as §1

The target of another data set is T1, EGFR (Homo sapiens, UniProt P00533).
T1 construct: purchased BPS Bioscience Corporation 40321
The experiment in a line: EGFR enzyme inhibition (BPS Bioscience kit, ELISA). Format: biochemical. Particulars: three independent replicates; for IC50: five concentrations, read-out: EGFR IC50 [nM] ± SD. Here is the method:
The luminescence was measured with a microplate reader at 450 nm by ELISA Reader (PerkinElmer). Inhibition percentage was calculated following this equation: 100-[Acontrol/Atreated-Control)] , IC50 was determined using GraphPad prism7 using inhibition curves at five different concentrations of each compound.

Another data set relates to MCF-10A cells. The experiment in a line: MTT cytotoxicity assay, normal breast cells MCF-10A. Format: cell-based. Particulars: Homo sapiens, MCF-10A; MTT, 48 h, normal breast cells; read-out: IC50 (μM) ± SD MCF-10A.
Experiment in data set [4]: as above
Format: cell-based. Particulars: human; MCF-10A normal breast cells, highest concentration; read-out: percentage of cell viability at the highest concentration.

For data set [5], the system named is MDA-MB-231 cells. As to the kind of experiment: Flow cytometry Annexin V/PI apoptosis/necrosis assessment. Format: cell-based. Particulars: MDA-MB-231, treated at IC50 0.57 μM, 48 h. The method, then:
MDA-MB-231 cells were incubated overnight in 6-well culture plates (3–5 × 10^5 cells/well) and then treated with the IC50 values for 48 h with compound 12d. After that, the cells were incubated in a 100 µL solution of Annexin binding buffer "25 mM CaCl2, 1.4 M NaCl, and 0.1 M Hepes/NaOH, pH 7.4" in the dark for 30 min with "Annexin V-FITC solution (1:100) and propidium iodide (PI) at a concentration equivalent to 10 µg/mL." The labeled cells were then extracted using the Cytoflex FACS machine. CytExpert software was used to analyze the data.

Where [6] appears, read: Homo sapiens, MDA-MB-231, MTT, 48 h, three independent trials, read-out: IC50 (μM) ± SD MDA-MB-231.
Setting [7] is: Fig. 3, MTT, 100 µM to 0.01 µM, 48 h, cell line not given, they match MDA-MB-231.
Where [8] appears, read: Homo sapiens, Fig. 3, MTT, 100 µM to 0.01 µM, 48 h, cell line not given, they match MDA-MB-231, read-out: IC50 (Fig. 3 curve fit).

Structures are written as SMILES. Like-named read-outs stand apart in the source and are kept apart here. Some results are limits rather than exact numbers.

T1 sequence (P00533 25-1210): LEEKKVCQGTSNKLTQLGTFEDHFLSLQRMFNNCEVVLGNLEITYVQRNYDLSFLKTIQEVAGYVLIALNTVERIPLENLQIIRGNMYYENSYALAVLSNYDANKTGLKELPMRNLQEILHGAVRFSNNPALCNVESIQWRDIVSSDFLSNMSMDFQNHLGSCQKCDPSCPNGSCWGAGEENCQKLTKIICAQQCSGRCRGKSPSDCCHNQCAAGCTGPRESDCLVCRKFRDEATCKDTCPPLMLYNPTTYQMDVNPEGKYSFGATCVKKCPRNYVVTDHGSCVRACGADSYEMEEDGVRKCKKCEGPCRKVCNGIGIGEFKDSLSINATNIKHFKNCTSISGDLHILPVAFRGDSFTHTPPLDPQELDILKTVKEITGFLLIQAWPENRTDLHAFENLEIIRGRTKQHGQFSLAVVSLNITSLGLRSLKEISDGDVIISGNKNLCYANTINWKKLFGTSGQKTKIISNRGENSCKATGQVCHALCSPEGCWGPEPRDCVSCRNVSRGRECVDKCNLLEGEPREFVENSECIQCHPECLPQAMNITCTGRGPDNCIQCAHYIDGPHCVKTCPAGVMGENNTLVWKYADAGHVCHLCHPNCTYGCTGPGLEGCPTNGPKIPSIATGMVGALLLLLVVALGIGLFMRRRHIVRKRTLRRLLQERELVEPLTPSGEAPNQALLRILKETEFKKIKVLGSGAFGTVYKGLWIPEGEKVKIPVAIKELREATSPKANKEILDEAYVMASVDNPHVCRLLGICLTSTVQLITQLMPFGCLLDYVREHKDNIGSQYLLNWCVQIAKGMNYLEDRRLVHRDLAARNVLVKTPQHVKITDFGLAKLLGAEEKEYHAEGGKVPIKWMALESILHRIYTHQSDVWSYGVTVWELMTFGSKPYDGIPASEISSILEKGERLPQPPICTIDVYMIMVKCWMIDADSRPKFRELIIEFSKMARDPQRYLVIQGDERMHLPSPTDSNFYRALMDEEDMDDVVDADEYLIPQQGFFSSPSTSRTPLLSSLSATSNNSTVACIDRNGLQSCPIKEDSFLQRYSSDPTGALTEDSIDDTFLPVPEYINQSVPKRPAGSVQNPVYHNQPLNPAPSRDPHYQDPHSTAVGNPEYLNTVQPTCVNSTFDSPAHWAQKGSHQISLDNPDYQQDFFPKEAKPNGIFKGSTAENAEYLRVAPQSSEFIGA

Turning to `Cc1ccc(Nc2nnc(Cc3ccncc3)c3ccccc23)cc1Br` [AAC789], in the data set with VEGFR‐2, the 50% inhibitory concentration (IC50) was 20 nM.

`O=C(Cn1nc(Cc2ccccc2)c2ccccc2c1=O)NCc1ccccc1` [Compound 6a, 2-(4-benzyl-1-oxophthalazin-2(1H)-yl)-N-benzyl acetamide] had a melting point of 174 to 176 °C. For the same compound, in [1], the “level of cytotoxic activity (Fig. 4)” value is “Third level activity (Poor cytotoxicity)”. For the same compound, the half-maximal inhibitory concentration (IC50) with MDA-MB-231 cells [2] (setting [6]) was 19.8 ± 0.74 µM. The IC50 in the data set with MCF-7 cells stood at 18.6 ± 0.69 µM.

`C=CCNC(=O)Cn1nc(Cc2ccccc2)c2ccccc2c1=O` [Compound 6f, 2-(4-benzyl-1-oxophthalazin-2(1H)-yl)-N-allyl acetamide] gave a melting point of 164 to 166 °C. In data set [1], the “level of cytotoxic activity (Fig. 4)” value is given as “Third level activity (Poor cytotoxicity)”. In addition, the IC50 with MDA-MB-231 cells [2] (setting [6]) is at least 50 µM. Besides, in the data set on MCF-7 cells, the IC50 was determined as 23.1 ± 0.94 µM.

For `O=C(Cn1nc(Cc2ccccc2)c2ccccc2c1=O)N1CCCCC1` [Compound 6g, 4-benzyl-2-(2-oxo-2-(piperidin-1-yl)ethyl) phthalazin-1(2H)-one], the melting point is 192 to 194 °C.

For the compound `O=C(Cn1nc(Cc2ccccc2)c2ccccc2c1=O)N1CCOCC1` [Compound 6h, 4-benzyl-2-(2-morpholino-2-oxoethyl) phthalazin-1(2H)-one], the melting point lay in the range of 210 to 212 °C. Moreover, in data set [1], the “level of cytotoxic activity (Fig. 4)” value is recorded as “Third level activity (Poor cytotoxicity)”. Also, the IC50 in the data set on MDA-MB-231 cells [2] (setting [6]) amounted to 21.3 ± 0.64 µM. In addition, in the data set on MCF-7 cells, the IC50 is 17.3 ± 0.31 µM.

As for `COC(=O)CNC(=O)Cn1nc(Cc2ccccc2)c2ccccc2c1=O` [Compound 7a, methyl (2-(4-benzyl-1-oxophthalazin-2(1H)-yl)acetyl) glycinate], the IC50 with MDA-MB-231 cells [2] (setting [6]) was 26.5 ± 0.79 µM; with MCF-7 cells it was at least 50 µM.

Turning to `NNC(=O)CNC(=O)Cn1nc(Cc2ccccc2)c2ccccc2c1=O` [Compound 8a, 2-(4-benzyl-1-oxophthalazin-2(1H)-yl)-N-(2-hydrazineyl-2-oxoethyl) acetamide], the melting point lay within 202 to 204 °C. Besides, in the data set with MDA-MB-231 cells [2] (setting [6]), the IC50 turned out to be 1.34 ± 0.13 µM. Further, in the data set on MCF-7 cells, the IC50 is 31.2 ± 1.01 µM.

Take `O=C(CNC(=O)Cn1nc(Cc2ccccc2)c2ccccc2c1=O)NCc1ccccc1` [Compound 10a, N-benzyl-2-(2-(4-benzyl-1-oxophthalazin-2(1H)-yl)acetamido) acetamide]: the melting point was in the range of 186 to 188 °C. Besides, the IC50 in the data set on MDA-MB-231 cells [2] (setting [6]) worked out at 6.4 ± 0.18 µM. Further, in the data set on MCF-7 cells, the IC50 is at least 50 µM.

As for `C=CCNC(=O)CNC(=O)Cn1nc(Cc2ccccc2)c2ccccc2c1=O` [Compound 10f, N-allyl-2-(2-(4-benzyl-1-oxophthalazin-2(1H)-yl)acetamido) acetamide], the melting point was 188 to 190 °C. In addition, in data set [1], the “level of cytotoxic activity (Fig. 4)” value is listed as “Second level activity (Moderate cytotoxicity)”. For the same compound, the IC50 in the data set on MDA-MB-231 cells [2] (setting [6]) is 8.6 ± 0.1 µM. Further, the “order of cytotoxic activity (SAR)” value in data set [3] is “moderate cytotoxicity (IC50 ≤ 20 μM)”. Further, the IC50 in the data set with MCF-7 cells was 15.4 ± 0.28 µM.

In the case of `O=C(Cn1nc(Cc2ccccc2)c2ccccc2c1=O)NCC(=O)N1CCOCC1` [Compound 10h, 2-(4-benzyl-1-oxophthalazin-2(1H)-yl)-N-(2-morpholino-2-oxoethyl) acetamide], the melting point lay in the range of 148 to 150 °C. Further, in [1], the “level of cytotoxic activity (Fig. 4)” value is reported as “Second level activity (Moderate cytotoxicity)”. In the data set with MDA-MB-231 cells [2] (setting [6]), the IC50 was found to be 2.3 ± 0.1 µM. Also, in [3], the “order of cytotoxic activity (SAR)” value is reported as “moderate cytotoxicity (IC50 ≤ 20 μM)”. For the same compound, the IC50 with MCF-7 cells was 16.4 ± 0.31 µM.

The compound `COC(=O)CNC(=O)CNC(=O)Cn1nc(Cc2ccccc2)c2ccccc2c1=O` [Compound 11a, methyl (2-(4-benzyl-1-oxophthalazin-2(1H)-yl)acetyl) glycyl glycinate] returned a melting point of 162 to 164 °C. Moreover, the “level of cytotoxic activity (Fig. 4)” value in data set [1] is “Second level activity (Moderate cytotoxicity)”. The IC50 in the data set with MDA-MB-231 cells [2] (setting [6]) was 7.2 ± 0.3 µM. Besides, the “order of cytotoxic activity (SAR)” value in [3] is “moderate cytotoxicity (IC50 ≤ 20 μM)”. Further, in the data set on MCF-7 cells, the IC50 worked out at 11.3 ± 0.29 µM.

Compound `COC(=O)C(NC(=O)CNC(=O)Cn1nc(Cc2ccccc2)c2ccccc2c1=O)C(C)C` (stereo not shown) [Compound 11d, methyl (2-(4-benzyl-1-oxophthalazin-2(1H)-yl)acetyl) glycyl valinate] came in with a melting point of 190 to 192 °C. Besides, in the data set with MDA-MB-231 cells [2] (setting [7]), the “LogIC50 (Fig. 3 curve fit)” value is -0.03564. In the data set with MDA-MB-231 cells [2] (setting [6]), the IC50 came out at 0.92 ± 0.01 µM. In addition, in the data set on MDA-MB-231 cells [2] (setting [8]), the IC50 came out at 0.921 µM. Moreover, on EGFR, the inhibition at 10 µM was found to be 92.9 ± 2.08% and the IC50 was 79.6 ± 1.35 nM. Besides, the IC50 with MCF-10A cells came out at 39.4 ± 1.8 µM. The viability at 48 h, 100 µM in [4] came to 11%. In addition, the IC50 in the data set on MCF-7 cells is 2.1 ± 0.01 µM.

In turn, `C/C(=N\NC(=O)CNC(=O)Cn1nc(Cc2ccccc2)c2ccccc2c1=O)c1ccco1` [Compound 12c, (E)-2-(4-benzyl-1-oxophthalazin-2(1H)-yl)-N-(2-(2-(1-(furan-2-yl)ethylidene) hydrazineyl)-2-oxoethyl) acetamide] registered a melting point of 209 to 210 °C. The “level of cytotoxic activity (Fig. 4)” value in data set [1] was “First level activity (Potent cytotoxicity)”. For the same compound, in the data set on MDA-MB-231 cells [2] (setting [7]), the “LogIC50 (Fig. 3 curve fit)” value turned out to be 0.2772. Besides, in the data set on MDA-MB-231 cells [2] (setting [6]), the IC50 was determined as 1.89 ± 0.04 µM. In the data set with MDA-MB-231 cells [2] (setting [8]), the IC50 came out at 1.89 µM. In [3], the “order of cytotoxic activity (SAR)” value is “potent cytotoxicicty (IC50 ≤ 2.5 μM)”. Also, at EGFR, 10 µM produced 96.2 ± 2.04% inhibition and the IC50 was 65.4 ± 1.12 nM. For the same compound, the IC50 in the data set with MCF-10A cells was determined as 43.6 ± 1.9 µM. For the same compound, in [4], the viability at 48 h, 100 µM was 9.6%. For the same compound, the IC50 in the data set on MCF-7 cells came to 1.4 ± 0.05 µM.

`Nc1cc(=O)[nH]n1C(=O)CNC(=O)Cn1nc(Cc2ccccc2)c2ccccc2c1=O` [Compound 12d, N-(2-(5-amino-3-oxo-2,3-dihydro-1H-pyrazol-1-yl)-2-oxoethyl)-2-(4-benzyl-1-oxophthalazin-2(1H)-yl) acetamide]: in data set [1], the “level of cytotoxic activity (Fig. 4)” value was “First level activity (Potent cytotoxicity)”. Further, the “LogIC50 (Fig. 3 curve fit)” value in the data set on MDA-MB-231 cells [2] (setting [7]) is -0.2373. Moreover, the IC50 in the data set on MDA-MB-231 cells [2] (setting [6]) was 0.57 ± 0.09 µM. In the data set on MDA-MB-231 cells [2] (setting [8]), the IC50 was 0.579 µM. Moreover, the “cell growth inhibition at the highest concentration” value in the data set with MDA-MB-231 cells [2] (MDA-MB-231, highest concentration (range 100 µM to 0.01 µM), 48 h) stood at 98.2%. For the same compound, in the data set on MDA-MB-231 cells [5], the “early apoptosis (Q4, AV+/PI−)” value came to 24.2%; the “late apoptosis (Q2, AV+/PI+)” value is listed as 18.3%; the “necrosis fold vs control” value is 9.25 fold; the “total apoptosis fold vs control” value came to 64.4 fold. The “total apoptotic cell death” value in the data set on MDA-MB-231 cells [5] (control 0.66%) amounted to 42.5%. In the data set with MDA-MB-231 cells [5] (control 0.67%), the “necrosis (Q1, AV−/PI+)” value is given as 6.2%. In addition, the “order of cytotoxic activity (SAR)” value in data set [3] is reported as “potent cytotoxicicty (IC50 ≤ 2.5 μM)”. Moreover, at EGFR, 10 µM produced 97.6 ± 2.49% inhibition and the IC50 amounted to 21.4 ± 0.67 nM. Moreover, the IC50 in the data set on MCF-10A cells amounted to 41.6 ± 1.8 µM. Moreover, the viability at 48 h, 100 µM in data set [4] is 3%. The IC50 in the data set on MCF-7 cells was 1.9 ± 0.01 µM.

Regarding `C#Cc1cccc(Nc2ncnc3cc(OCCOC)c(OCCOC)cc23)c1` [Erlotinib, reference compound], the IC50 came out at 1 µM with MDA-MB-231 cells [2] (Homo sapiens, MDA-MB-231, 48 h, MTT, three independent trials, read-out: IC50 (μM) ± SD MDA-MB-231); 1.02 ± 0.1 µM in the data set on MDA-MB-231 cells [2] (MTT, 48 h, three independent trials, read-out: IC50 (μM) ± SD MDA-MB-231); 30.9 ± 1.8 µM in the data set with MCF-10A cells; 1.32 ± 0.04 µM with MCF-7 cells.

As for `Clc1ccc(Nc2nnc(Cc3ccncc3)c3ccccc23)cc1` [Vatalanib], the IC50 with VEGFR‐2 is […].
